In patent US20250215030A1, “STAT MODULATORS AND USES THEREOF” (Recludix Pharma, Inc., priority 2022, published 2025):

Key:
pSTAT6 (pY641-STAT6) = molecular target: T1, pSTAT6 (pY641-STAT6) (Homo sapiens, UniProt P42226); assay: MSD-pSTAT-PBMC Assay (pSTAT6, IL-4 stimulated); assay type: cell-based; details: compound 3 hrs, then 1 ng/mL IL-4 for 10 min
T1 construct: host or cells: cryopreserved PBMC
T1 sequence (P42226 1-847): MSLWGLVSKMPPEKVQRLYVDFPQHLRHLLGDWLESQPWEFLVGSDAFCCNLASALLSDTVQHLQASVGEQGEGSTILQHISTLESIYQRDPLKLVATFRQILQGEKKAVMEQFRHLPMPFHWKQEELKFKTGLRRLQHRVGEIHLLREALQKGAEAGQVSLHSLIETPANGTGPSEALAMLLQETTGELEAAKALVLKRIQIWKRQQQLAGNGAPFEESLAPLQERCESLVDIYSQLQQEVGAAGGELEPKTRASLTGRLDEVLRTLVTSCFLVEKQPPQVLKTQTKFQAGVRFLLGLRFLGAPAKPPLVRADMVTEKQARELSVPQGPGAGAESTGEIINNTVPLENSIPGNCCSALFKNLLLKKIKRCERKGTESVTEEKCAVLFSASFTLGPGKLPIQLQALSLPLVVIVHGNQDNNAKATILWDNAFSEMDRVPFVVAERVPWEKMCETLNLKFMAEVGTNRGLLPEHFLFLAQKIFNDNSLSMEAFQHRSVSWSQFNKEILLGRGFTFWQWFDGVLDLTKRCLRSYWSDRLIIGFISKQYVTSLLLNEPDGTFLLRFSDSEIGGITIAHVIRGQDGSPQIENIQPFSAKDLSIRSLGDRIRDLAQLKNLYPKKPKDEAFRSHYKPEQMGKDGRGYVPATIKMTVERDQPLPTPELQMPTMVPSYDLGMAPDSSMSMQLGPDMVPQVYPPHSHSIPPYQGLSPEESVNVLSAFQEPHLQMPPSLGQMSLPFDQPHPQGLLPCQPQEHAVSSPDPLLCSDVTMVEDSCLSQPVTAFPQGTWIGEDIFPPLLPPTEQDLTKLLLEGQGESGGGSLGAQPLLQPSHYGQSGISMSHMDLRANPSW
Source text: Cryopreserved Peripheral Blood Mononuclear Cells (PBMC) are from AllCells. Recombinant Human IL-4 and IL-6 are from Peprotech. Mouse monoclonal anti-STAT3 antibody, rabbit monoclonal anti-pY705-STAT3 antibody, rabbit monoclonal Anti-pY641-STAT6 antibody, and lysis buffer are from Cell Signaling Technology (CST). Mouse monoclonal anti-STAT6 antibody is from BioLegend. Assay plates, blocker, and anti-rabbit secondary antibody are from Meso Scale Discovery (MSD).
Cryopreserved PBMCs were thawed out and allowed to recover overnight in IMDM+10% heat-inactivated FBS prior to plating 50,000 (STAT3) or 25,000 (STAT6) cells per well in 96-well U-bottom tissue culture plates. Cells were treated with compound for 3 hrs, then stimulated with 10 ng/mL IL-6 (STAT3) or 1 ng/mL IL-4 (STAT6) for 10 min. Cells were then spun down and washed with ice-cold PBS prior to lysing the cell pellet with 1× lysis buffer (CST) with 1× HALT protease and phosphatase inhibitor cocktail (Thermo). Lysates were transferred to and incubated overnight at 4° C. with shaking in QuickPlex 96-well high bind assay plates (MSD) pre-coated overnight with 30 μL per well of 0.6 μg/mL mouse monoclonal anti-STAT3 antibody (STAT3) or 2 μg/mL mouse monoclonal anti-STAT6 antibody (STAT6) in 1×PBS, and pre-blocked for 1 hour with 3% Blocker-A (MSD). Captured protein in the assay plates were then washed and probed with 25 μL per well of 0.25 μg/ml rabbit monoclonal anti-pY705-STAT3 antibody (STAT3) or 0.18 μg/ml rabbit monoclonal Anti-pY641-STAT6 antibody (STAT6) in 1% Blocker-A for 1 hour at room temperature with shaking, then washed and probed with 25 ul per well of 1 ug/mi Sulfo-TAG Labeled Goat Anti-Rabbit Antibody (MSD) in 1% Blocker-A for 1 hour at room temperature with shaking. Assay plates were then washed and 150 μL of 1× Read Buffer-T (MSD) was added to each well prior to reading on an SQ120 MSD Plate Reader. Assay signal from each sample was subtracted by the signal from unstimulated control wells and normalized to DMSO control wells. IC50 values were calculated using Graph Pad Prism Dose-Response Nonlinear Regression with variable slope. For both pSTAT3 and pSTAT6 A=≤100 nM; B=>100-1000 nM; C=>1000-3000 nM; and D=>3 μM.

pSTAT3 (pY705-STAT3) = molecular target: T2, pSTAT3 (pY705-STAT3) (Homo sapiens, UniProt P40763); assay: MSD-pSTAT-PBMC Assay (pSTAT3, IL-6 stimulated); assay type: cell-based; details: PBMC, compound 3 hrs, then 10 ng/mL IL-6 for 10 min; MSD pY705-STAT3; read-out: pSTAT3
T2 construct: host or cells: cryopreserved PBMC
Procedure, shortened: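 Human PBMCs (50,000 cells/well for STAT3, 25,000 for STAT6) treated with compound 3 h, then stimulated 10 min with 10 ng/mL IL-6 or 1 ng/mL IL-4. Lysate pSTAT3 (pY705) or pSTAT6 (pY641) measured by MSD sandwich electrochemiluminescence. Signal minus unstimulated, normalized to DMSO; IC50 by variable-slope nonlinear regression.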

T2 sequence (P40763 whole entry): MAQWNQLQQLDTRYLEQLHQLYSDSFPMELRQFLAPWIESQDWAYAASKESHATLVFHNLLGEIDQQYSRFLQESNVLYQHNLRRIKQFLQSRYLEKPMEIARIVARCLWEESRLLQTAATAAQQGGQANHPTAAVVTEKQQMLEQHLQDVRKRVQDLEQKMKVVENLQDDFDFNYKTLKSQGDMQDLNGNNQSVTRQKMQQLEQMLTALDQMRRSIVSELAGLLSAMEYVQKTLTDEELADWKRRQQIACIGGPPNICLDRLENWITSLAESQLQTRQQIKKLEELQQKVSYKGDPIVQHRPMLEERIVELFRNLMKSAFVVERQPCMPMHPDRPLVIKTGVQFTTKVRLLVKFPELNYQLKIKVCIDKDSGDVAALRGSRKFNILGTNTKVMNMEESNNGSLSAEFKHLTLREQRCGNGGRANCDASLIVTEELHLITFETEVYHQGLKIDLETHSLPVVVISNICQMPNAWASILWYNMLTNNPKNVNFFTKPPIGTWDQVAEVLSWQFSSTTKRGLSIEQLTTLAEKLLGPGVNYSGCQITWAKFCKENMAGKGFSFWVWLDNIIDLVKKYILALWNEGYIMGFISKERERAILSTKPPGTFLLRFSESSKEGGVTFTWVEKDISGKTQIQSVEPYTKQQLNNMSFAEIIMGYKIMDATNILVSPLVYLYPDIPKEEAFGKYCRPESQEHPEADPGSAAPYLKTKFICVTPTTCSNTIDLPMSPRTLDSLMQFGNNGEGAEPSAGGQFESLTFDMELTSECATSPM

Row | Compound | IC50 (pSTAT6 (pY641-STAT6)) [nM] | IC50 (pSTAT3 (pY705-STAT3)) [nM]
1 | CC(C)(C)C(=O)OCOP(=O)(OCOC(=O)C(C)(C)C)C(F)(F)c1ccc2sc(C(=O)N[C@H]3C[C@@H]4C[C@@H]4C[C@H]4CC[C@@H](C(=O)N5C[C@@H](C#N)[C@H](c6ccccc6)C5)N4C3=O)cc2c1 (relative stereo) [Compound 139, ((((2-(((3S,6S,7aR, 8aS,9aR)-3-((rel-trans)-3-cyano-4-phenyl-pyrrolidine-1-carbonyl)-5-oxodecahydro-1H-cyclopropa [d]pyrrolo[1,2-a]azocin-6-yl)carbamoyl)benzo[b]thiophen-5-yl)difluoro-methyl)phosphoryl)bis(oxy)) bis(methylene) bis(2,2-dimethylpro-panoate)] | < 100 | < 100
2 | CC(C)(C)C(=O)OCOP(=O)(OCOC(=O)C(C)(C)C)[C@@H](F)c1ccc2sc(C(=O)N[C@H]3C[C@@H]4C[C@@H]4C[C@H]4CC[C@@H](C(=O)N5CC(C(=O)N6CCOCC6)C5)N4C3=O)cc2c1 (single isomer, unassigned) [Compound 182, ((((S) or (R)-fluoro(2-(((3S,6S,7aS, 8aR,9aR)-3-(3-(morpholine-4-carbonyl)azetidine-1-carbonyl)-5-oxodecahydro-1H-cyclopropa[d]pyrrolo[1,2-a]azocin-6-yl)carbamoyl)benzo[b]thiophen-5-yl)methyl)phosphoryl)bis(oxy)) bis(methylene) bis(2,2-dimethyl-propanoate)] | > 3000 | < 100
3 | CC(C)(CO)C(=O)SCCOP(=O)(OCCSC(=O)C(C)(C)CO)C(F)(F)c1ccc2sc(C(=O)N[C@H]3C[C@@H]4C[C@@H]4C[C@H]4CC[C@@H](C(=O)N5CC(C(=O)N6CCOCC6)C5)N4C3=O)cc2c1 [Compound 131, S,S′-((((difluoro(2-(((3S,6S,7aS, 8aR,9aR)-3-(3-(morpholine-4-carbonyl)azetidine-1-carbonyl)-5-oxodecahydro-1H-cyclopropa[d]pyrrolo[1,2-a]azocin-6-yl)carbamoyl)benzo[b]thiophen-5-yl)methyl)phosphoryl)bis(oxy))bis(ethane-2,1-diyl)) bis(3-hydroxy-2,2-dimethyl-propane-thioate)] | > 3000 | 100 to 1000
4 | CC(C)(C)C(=O)OCOP(=O)(OCOC(=O)C(C)(C)C)C(F)(F)c1ccc2sc(C(=O)N[C@H]3C[C@H]4C[C@H]4C[C@H]4CC[C@@H](C(=O)N5C[C@@H](C#N)[C@H](c6ccccc6)C5)N4C3=O)cc2c1 [Compound 140, ((((2-(((3S,6S,7aR, 8aS,9aR)-3-((3S,4R)-3-cyano-4-phenyl-pyrrolidine-1-carbonyl)-5-oxodecahydro-1H-cyclopropa [d]pyrrolo[1,2-a]azocin-6-yl)carbamoyl)benzo[b]thiophen-5-yl)difluoromethyl)phosphoryl)bis(oxy)) bis(methylene) bis(2,2-dimethylpro-panoate)] | < 100 | < 100

Now from value to compound:

Row | IC50 (pSTAT6 (pY641-STAT6)) [nM] | IC50 (pSTAT3 (pY705-STAT3)) [nM] | Compound
5 | 100 to 1000 | < 100 | CC(C)(C)C(=O)OCOP(=O)(OCOC(=O)C(C)(C)C)[C@@H](F)c1ccc2sc(C(=O)N[C@H]3C[C@@H]4C[C@@H]4C[C@H]4CC[C@@H](C(=O)N5CC(C(=O)N6CCOCC6)C5)N4C3=O)cc2c1 (single isomer, unassigned) [Compound 183, ((((R) or (S)-fluoro(2-(((3S,6S,7aS, 8aR,9aR)-3-(3-(morpholine-4-carbonyl)azetidine-1-carbonyl)-5-oxodecahydro-1H-cyclopropa[d]pyrrolo[1,2-a]azocin-6-yl)carbamoyl)benzo[b]thiophen-5-yl)methyl)phosphoryl)bis(oxy)) bis(methylene) bis(2,2-dimethyl-propanoate)]
6 | > 3000 | > 3000 | CC(C)(CO)C(=O)SCCOP(=O)(Cc1ccc2sc(C(=O)N[C@H]3C[C@@H]4C[C@@H]4C[C@H]4CC[C@@H](C(=O)N5CC(C(=O)N6CCOCC6)C5)N4C3=O)cc2c1)OCCSC(=O)C(C)(C)CO [Compound 133, S,S′-(((((2-(((3S,6S,7aS, 8aR,9aR)-3-(3-(morpholine-4-carbonyl)azetidine-1-carbonyl)-5-oxodecahydro-1H-cyclopropa[d]pyrrolo[1,2-a]azocin-6-yl)carbamoyl)benzo[b]thiophen-5-yl)methyl)phosphoryl)bis(oxy))bis(ethane-2,1-diyl)) bis(3-hydroxy-2,2-dimethyl-propane-thioate]
7 | > 3000 | < 100 | O=C(OCOP(=O)(Cc1ccc2sc(C(=O)N[C@H]3C[C@H]4C[C@H]4C[C@H]4CC[C@@H](C(=O)N5CC(c6cccnc6)C5)N4C3=O)cc2c1)OCOC(=O)OC1CCOCC1)OC1CCOCC1 [Compound 135, ((((2-(((3S,6S,7aR, 8aS,9aR)-5-oxo-3-(3-(pyridin-3-yl)azetidine-1-carbonyl)decahydro-1H-cyclopropa[d]pyrrolo[1,2-a]azocin-6-yl)carbamoyl)benzo[b]thiophen-5-yl)methyl)phosphoryl)bis(oxy)) bis(methylene) bis(tetrahydro-2H-pyran-4-yl) bis(carbonate)]
8 | > 3000 | 1000 to 3000 | CC(C)(O)CC(=O)SCCOP(=O)(OCCSC(=O)CC(C)(C)O)C(F)(F)c1ccc2sc(C(=O)NC3CC4CC4CC4CCC(C(=O)N5CC(n6ccnc6)C5)N4C3=O)cc2c1 [Compound 136, S,S′-(((((2-(((3S,6S,7aS, 8aR,9aR)-3-(3-(1H-imidazol-1-yl)azetidine-1-carbonyl)-5-oxodecahydro-1H-cyclopropa[d]pyrrolo[1,2-a]azocin-6-yl)carbamoyl)benzo[b]thiophen-5-yl)difluoro-methyl)phosphoryl)bis(oxy))bis (ethane-2,1-diyl))bis(3-hydroxy-3-methylbutane thioate)]
9 | > 3000 | 1000 to 3000 | CC(C)(CO)C(=O)SCCOP(=O)(OCCSC(=O)C(C)(C)CO)C(F)(F)c1ccc2sc(C(=O)N[C@H]3C[C@@H]4C[C@@H]4C[C@H]4CC[C@@H](C(=O)N5CC(n6ccnc6)C5)N4C3=O)cc2c1 [Compound 137, S,S′-(((((2-(((3S,6S,7aS, 8aR,9aR)-3-(3-(1H-imidazol-1-yl)azetidine-1-carbonyl)-5-oxodecahydro-1H-cyclopropa[d]pyrrolo[1,2-a]azocin-6-yl)carbamoyl)benzo[b]thiophen-5-yl)difluoro-methyl)phosphoryl)bis (oxy))bis(ethane-2,1-diyl))bis(3-hydroxy-2,2-dimethylpro-panethioate)]
10 | 1000 to 3000 | < 100 | CCCC(=O)SCCOP(=O)(OCCSC(=O)C(C)(C)C)C(F)(F)c1ccc2sc(C(=O)N[C@H]3C[C@@H]4C[C@@H]4C[C@H]4CC[C@@H](C(=O)N5CC(C(=O)N6CCOCC6)C5)N4C3=O)cc2c1 (stereo partly drawn) [Compound 138, S-(2-(((difluoro(2-(((3S,6S,7aS, 8aR,9aR)-3-(3-(morpholine-4-carbonyl)azetidine-1-carbonyl)-5-oxodecahydro-1H-cyclopropa [d]pyrrolo[1,2-a]azocin-6-yl)carbamoyl)benzo [b]thiophen-5-yl)methyl)(2-(pivaloylthio)ethoxy)phosphoryl)oxy)ethyl) butanethioate]
